Where two headings read alike, the source gives them in different places.
Tests used:
[1] = system: K-562 erythroleukemia; assay: K-562 erythroleukemia xenograft; assay type: in vivo, mice; details: daily for 18 days
[2] = system: Hsp70 RNA; assay: Hsp70 RNA induction in liver and tumor of N-87 xenografted mice (qRT-PCR); assay type: in vivo; details: single oral dose 200 mg/kg
Protocol: Xenografted mice bearing N-87 tumors (median volume ˜425 mm^3) were given a single oral dose of Compound 1 (200 mg/kg). Blood, tumor and liver samples (n=6) were collected at 0.25, 0.5, 1, 2, 4, 8, 12, 24, 36 and 48 h post-dose and used to determine Compound 1 concentrations in the plasma and Hsp70 RNA levels in tumor and liver samples (See FIG. 6). Hsp70 RNA levels were determined by qRT-PCR.

[3] = system: NCI-H460 non-small cell lung cancer; assay: NCI-H460 non-small cell lung cancer xenograft; assay type: in vivo, mice; details: 200 mg/kg oral, daily for 21 days
[4] = Phase I clinical trial, dose limiting toxicities; assay type: in vivo, human; details: 50 to 340 mg/m^2 oral, 1 to 13 (28-day) cycles
Protocol: A human clinical study was initiated at a starting dose of 50 mg/m^2. Subjects had recurrent cancer refractory to available systemic therapy. Compound 1 was administered daily by mouth in tablet form for 21 consecutive days in a 28 day cycle to each enrolled subject. For determination of drug levels in humans, plasma was collected prior to drug administration and 0.5, 1, 2, 3, 4, 6, 8, and 24 hours post-dosing on cycle 1 day 1, and cycle 1 day 21. Plasma was collected pre-dose only for cycle 1 day 8. Peripheral blood mononuclear cells (PBMCs) were collected prior to drug administration, and typically 8 and 24 hours post-dose on cycle 1 day 1 and cycle 1 day 21 in order to quantify Hsp70 protein levels as an exploratory biomarker. Patients were men and women with metastatic cancer, ranged in age from 45 to 85 years, and received doses ranging from 50 mg/m^2 to 340 mg/m^2, with a total daily dose of 100-740 mg (Tables 2A and 2B).

[5] = system: DU-145 prostate cancer; assay: DU-145 prostate cancer xenograft; assay type: in vivo, mice; details: 200 mg/kg oral, 5-days-on/2-days-off, after 5 cycles
[6] = system: Hsp70 protein levels in PBMCs; assay: Hsp70 protein levels in PBMCs of patients (ELISA); assay type: in vivo, human; details: 8 hours after the first dose, sustained on day 8 and day 22
Protocol: A human clinical study was initiated at a starting dose of 50 mg/m^2. Subjects had recurrent cancer refractory to available systemic therapy. […] For determination of drug levels in humans, plasma was collected prior to drug administration and 0.5, 1, 2, 3, 4, 6, 8, and 24 hours post-dosing on cycle 1 day 1, and cycle 1 day 21. Plasma was collected pre-dose only for cycle 1 day 8.
Hsp70 protein levels were determined by an ELISA with a Hsp 70 ELISA kit (catalog #EKS-700B, Assay Designs, Stressgen, Ann Arbor, Mich.) as per the manufacturer's protocol.

[7] = Phase I clinical trial, human plasma pharmacokinetics of oral Compound 1; assay type: in vivo; details: for AUC(0-inf) / Vd/F / AUC(0-t) / Cmax / Tmax / half-life: human, plasma, po; for Vd/F: read-out: Vz/F; for AUC(0-t): read-out: AUC(0-24)
Protocol: A human clinical study was initiated at a starting dose of 50 mg/m^2. Subjects had recurrent cancer refractory to available systemic therapy. Compound 1 was administered daily by mouth in tablet form for 21 consecutive days in a 28 day cycle to each enrolled subject. […] Plasma was collected pre-dose only for cycle 1 day 8. […] Patients were men and women with metastatic cancer, ranged in age from 45 to 85 years, and received doses ranging from 50 mg/m^2 to 340 mg/m^2, with a total daily dose of 100-740 mg (Tables 2A and 2B).

[8] = both sexes, 50 mg/m^2, Day 01, Cohort 1, 50 mg/m^2 (100 mg), oral daily
[9] = both sexes, 100 mg/m^2, Day 01, Cohort 2, 100 mg/m^2 (160 mg), oral daily
[10] = both sexes, 165 mg/m^2, Day 01, Cohort 3, 165 mg/m^2 (300 mg), oral daily
[11] = both sexes, 240 mg, Day 01, Cohort 6 (BID), N = 4, 240 mg, oral twice daily
[12] = both sexes, 240 mg, Day 21, Cohort 6 (BID), N = 2, 240 mg, oral twice daily
[13] = both sexes, 245 mg/m^2, Day 01, Cohort 4, 245 mg/m^2 (340-540 mg), oral daily
[14] = both sexes, 340 mg/m^2, Day 01, Cohort 5 (BID), N = 6, 340 mg/m^2 (270-370 mg), oral twice daily
[15] = both sexes, Day 21, Cohort 4, N = 6, 176-245 mg/m^2 (340-540 mg), oral daily
[16] = 50 mg/m^2, Day 01, Cohort 1, Subject 101, 50 mg/m^2 (100 mg), oral daily

C[C@H](O)C(=O)N1CCC(CCn2c(Sc3cc4c(cc3Br)OCO4)nc3c(N)ncnc32)CC1 [Compound 1, (2S)-1-[4-(2-{6-amino-8-[(6-bromo-1,3-benzodioxol-5-yl)thio]-9H-purin-9-yl}ethyl)piperidin-1-yl]-1-oxopropan-2-ol]
TGI (tumor growth inhibition) ([1]; 150 mg/kg oral, p = 0.14): 82% TGI (p = 0.14) 150 mg/kg,
TGI (tumor growth inhibition) ([1]; 200 mg/kg oral, p = 0.05): 97% TGI (p = 0.05)
Hsp70 RNA induction in liver ([2]; 4 hours post-dose): ~70 fold
Hsp70 RNA induction in tumor tissue ([2]; 4 hours post-dose): ~110 fold
time at which Hsp70 RNA induction reverts to baseline ([2]; post-dose): ≤ 12 h
time to tumor volume 1,500 mm^3 ([3]; p = 0.006): extended
TGI (tumor growth inhibition) ([3]; p = 0.05): 61%
treated mice with tumors <1,500 mm^3 ([3]; compared to 1/10 for vehicle arm): 4/8 treated mice have tumors
dose limiting toxicities [4]: No dose limiting toxicities have been reported to date
TGI (tumor growth inhibition), average [5]: Average of ~80% TGI after 5
Hsp70 levels in protein extracts derived from PBMCs [6]: showed an increase
CL/F ([7]; Day 01, Cohort 1, 50 mg/m^2 (100 mg), oral daily): 4098 mL/h
CL/F ([7]; Day 01, Cohort 2, 100 mg/m^2 (160 mg), oral daily): 4343 mL/h
CL/F ([7]; Day 01, Cohort 3, 165 mg/m^2 (300 mg), oral daily): 2405 mL/h
CL/F ([7]; Day 01, Cohort 4, 245 mg/m^2 (340-540 mg), oral daily): 3118 mL/h
CL/F ([7]; Day 01, Cohort 5 (BID), 340 mg/m^2 (270-370 mg), oral twice daily): 2517 mL/h
CL/F ([7]; Day 01, Cohort 5, 340 mg/m^2 (480-620 mg), oral daily): 2500 mL/h
CL/F ([7]; Day 01, Cohort 6 (BID), 240 mg, oral twice daily): 5956 mL/h
CL/F ([7]; Day 19, Cohort 1, 50 mg/m^2 (100 mg), oral daily): 4547 mL/h
CL/F ([7]; Day 21, Cohort 2, 100 mg/m^2 (160 mg), oral daily): 3213 mL/h
CL/F ([7]; Day 21, Cohort 3, 165 mg/m^2 (300 mg), oral daily): 1502 mL/h
CL/F ([7]; Day 21, Cohort 4, 176-245 mg/m^2 (340-540 mg), oral daily): 3509 mL/h
CL/F ([7]; Day 21, Cohort 5 (BID), 340 mg/m^2 (330 mg), oral twice daily): 4746 mL/h
CL/F ([7]; Day 21, Cohort 5, 340 mg/m^2 (620 mg), oral daily): 1323 mL/h
CL/F ([7]; Day 21, Cohort 6 (BID), 240 mg, oral twice daily): 4003 mL/h
AUC(0-inf) [7, 8]: 24400 ng·h/mL
Vd/F [7, 8]: 50.5 L
AUC(0-inf) [7, 9]: 36800 ng·h/mL
AUC(0-t) [7, 9]: 29900 ng·h/mL
Vd/F [7, 9]: 61.6 L
AUC(0-inf) [7, 10]: 125000 ng·h/mL
AUC(0-t) [7, 10]: 91800 ng·h/mL
Vd/F [7, 10]: 40 L
Cmax [7, 11]: 6250 ng/mL
Tmax [7, 11]: 1 h
half-life [7, 11]: 330 min
Cmax [7, 12]: 9200 ng/mL
Tmax [7, 12]: 1.5 h
half-life [7, 12]: 372 min
AUC(0-inf) [7, 13]: 143000 ng·h/mL
AUC(0-t) [7, 13]: 99100 ng·h/mL
Vd/F [7, 13]: 61.4 L
Cmax [7, 14]: 8120 ng/mL
Tmax [7, 14]: 2 h
half-life [7, 14]: 450 min
Cmax [7, 15]: 9270 ng/mL
Tmax [7, 15]: 2 h
half-life [7, 15]: 792 min
oral bioavailability ([7]; human cancer patients): orally bioavailable
increase in drug levels with increasing dose ([7]; human patients, oral tablets): more-than-proportional increase
AUC(0-t) ([7]; 50 mg/m^2, Day 01, Cohort 1, 50 mg/m^2 (100 mg), oral daily): 20600 ng·h/mL
Cmax [7, 16]: 1900 ng/mL
Tmax [7, 16]: 2 h
half-life [7, 16]: 510 min
AUC(0-inf) ([7]; 50 mg/m^2, Day 19, Cohort 1, 50 mg/m^2 (100 mg), oral daily): 30800 ng·h/mL

From patent US20120277257A1, “Methods of Treating Diseases, Pharmaceutical Compositions, and Pharmaceutical Dosage Forms” (MYREXIS, INC., priority 2009, published 2012)
